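Growth conditions: 96-well plates. Treatment: test compound, 48 hours, 5 concentrations. Analysis: linear interpolation between bracketing concentrations; unreached endpoints set to highest concentration. GI50 = concentration required for 50% inhibition of growth.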 Activity calls are given as the source filed them. Rule as the data show it: active = GI50 up to about 1.1 µM and inactive = higher.
Columns and labels:
Assay in all cases: inhibition of tumour cell growth, NCI panel, 48 h
[1] = test system: CCRF-CEM
[2] = test system: OVCAR-4
[3] = test system: A549
[4] = test system: SF-295
[5] = test system: 786-0
[6] = test system: DU-145
[7] = test system: OVCAR-8
[8] = test system: EKVX
[9] = test system: MCF7
[10] = test system: HCC 2998
[11] = test system: T47D
[12] = test system: SW-620
[13] = test system: MDA-N
[14] = test system: SK-OV-3
[15] = test system: NCI-H23
[16] = test system: ACHN
[17] = test system: SN12C
[18] = test system: NCI-H226
[19] = test system: MDA-MB-231
[20] = test system: MDA-MB-435

SMILES | GI50 [1] | GI50 [2] | GI50 [3] | GI50 [4] | GI50 [5] | GI50 [6] | GI50 [7] | GI50 [8] | GI50 [9] | GI50 [10] | GI50 [11] | GI50 [12] | GI50 [13] | GI50 [14] | GI50 [15] | GI50 [16] | GI50 [17] | GI50 [18] | GI50 [19] | GI50 [20]
CCC(=O)C1(c2ccccc2)CCN(C)CC1 | > 100 µM (inactive) | > 100 µM (inactive) | > 100 µM (inactive) | > 100 µM (inactive) | > 100 µM (inactive) | > 100 µM (inactive) | > 100 µM (inactive) | > 100 µM (inactive) | > 100 µM (inactive) | > 100 µM (inactive) | > 100 µM (inactive) | > 100 µM (inactive) | > 100 µM (inactive) | > 100 µM (inactive) | > 100 µM (inactive) | > 100 µM (inactive) |  |  |  | 
NC(CSC(c1ccccc1)(c1ccccc1)c1ccccc1)C(=O)O (stereo not drawn) | 0.583 µM (active) | 7.5 µM (inactive) | 0.822 µM (active) |  | 0.971 µM (active) |  | 0.904 µM (active) | 1.19 µM (inactive) |  | 0.716 µM (active) | 0.684 µM (active) | 0.741 µM (active) | 1.08 µM (active) | 0.634 µM (active) | 2.29 µM (inactive) | 7.89 µM (inactive) | 1.27 µM (inactive) | 3.59 µM (inactive) | 1.42 µM (inactive) | 0.333 µM (active)
Cc1ccc(N)cc1.O=S(=O)(O)/C(=C\c1ccccc1)c1ccccc1 | > 100 µM (inactive) | > 100 µM (inactive) | > 100 µM (inactive) | > 100 µM (inactive) | > 100 µM (inactive) | > 100 µM (inactive) | > 100 µM (inactive) | > 100 µM (inactive) | > 100 µM (inactive) |  | > 100 µM (inactive) | > 100 µM (inactive) | > 100 µM (inactive) | > 100 µM (inactive) | > 100 µM (inactive) | > 100 µM (inactive) | > 100 µM (inactive) | > 100 µM (inactive) | > 100 µM (inactive) | > 100 µM (inactive)
COc1nc(C#CCCCC#N)nc(OC)n1 |  | 3.82 µM (inactive) | 15.8 µM (inactive) | 28.2 µM (inactive) | 11.1 µM (inactive) | 8.93 µM (inactive) | 21.2 µM (inactive) | 19.8 µM (inactive) | 5.27 µM (inactive) |  | 35.4 µM (inactive) | 15 µM (inactive) | 15.7 µM (inactive) | 90.6 µM (inactive) | 13.8 µM (inactive) | 8.93 µM (inactive) | 16.4 µM (inactive) |  | 11.7 µM (inactive) | 10.4 µM (inactive)
CCOC(=O)/C1=C(\C)N(Cc2ccccc2)C(=O)c2ccccc2C(=O)c2c(OC(C)=O)ccc(OC(C)=O)c21 | 40.8 µM (inactive) | 24.9 µM (inactive) | 36.4 µM (inactive) | 29 µM (inactive) | > 100 µM (inactive) |  | 67.8 µM (inactive) | 18.3 µM (inactive) | 21.1 µM (inactive) | 7.6 µM (inactive) | > 100 µM (inactive) | 65.3 µM (inactive) | 36 µM (inactive) | > 100 µM (inactive) |  | > 100 µM (inactive) | > 100 µM (inactive) |  | > 100 µM (inactive) | 47.6 µM (inactive)
C=CC1(CCC(Br)C(C)(C)Cl)CO1 (stereo not drawn) | > 10 µM (inactive) |  | > 10 µM (inactive) | > 10 µM (inactive) | > 10 µM (inactive) | > 10 µM (inactive) | > 10 µM (inactive) | > 10 µM (inactive) | > 10 µM (inactive) | > 10 µM (inactive) | > 10 µM (inactive) | > 10 µM (inactive) | > 10 µM (inactive) | > 10 µM (inactive) |  | > 10 µM (inactive) | > 10 µM (inactive) |  | > 10 µM (inactive) | > 10 µM (inactive)
COc1ccc(-c2cc(-c3ccc(Cl)cc3)n(C3OC(CO)C(O)C(O)C3O)c(=S)c2C#N)cc1 (stereo not drawn) |  | 30 µM (inactive) |  | > 100 µM (inactive) | 12.5 µM (inactive) | 4.04 µM (inactive) | 21 µM (inactive) |  | > 10 µM (inactive) | 64.9 µM (inactive) | 29.2 µM (inactive) | 48.2 µM (inactive) | > 100 µM (inactive) | > 100 µM (inactive) |  | > 100 µM (inactive) | > 100 µM (inactive) |  | 37.5 µM (inactive) | 75.5 µM (inactive)
C[N+](C)(N)Cc1nc(-c2ccc(Cl)cc2)no1 | 94.8 µM (inactive) | > 100 µM (inactive) | > 100 µM (inactive) | > 100 µM (inactive) | > 100 µM (inactive) | > 100 µM (inactive) | > 100 µM (inactive) | 37.7 µM (inactive) | > 100 µM (inactive) |  | 22.9 µM (inactive) | > 100 µM (inactive) | > 100 µM (inactive) | > 100 µM (inactive) | > 100 µM (inactive) | > 100 µM (inactive) | > 100 µM (inactive) | > 100 µM (inactive) | > 100 µM (inactive) | > 100 µM (inactive)
Cc1noc(-c2ccc(C(=O)O)[nH]2)c1Br | > 100 µM (inactive) | 31.8 µM (inactive) | 45.2 µM (inactive) | 28.1 µM (inactive) | 29 µM (inactive) | 37.9 µM (inactive) | 15.8 µM (inactive) | 30.9 µM (inactive) | 50.1 µM (inactive) | 65 µM (inactive) | 17.3 µM (inactive) | 68.9 µM (inactive) | > 100 µM (inactive) | 38.6 µM (inactive) | 55.6 µM (inactive) | 38.3 µM (inactive) |  |  | > 100 µM (inactive) | > 100 µM (inactive)
COc1ccc(C(=C(Cl)c2ccccc2)c2ccc(OC)cc2)cc1 | > 100 µM (inactive) | > 100 µM (inactive) | > 100 µM (inactive) | > 100 µM (inactive) | > 100 µM (inactive) | > 100 µM (inactive) | > 100 µM (inactive) | > 100 µM (inactive) | > 100 µM (inactive) |  | 16.1 µM (inactive) | > 100 µM (inactive) | > 100 µM (inactive) | > 100 µM (inactive) | > 100 µM (inactive) | > 100 µM (inactive) | > 100 µM (inactive) | > 100 µM (inactive) | > 100 µM (inactive) | > 100 µM (inactive)
CC(CC(N)C(=O)O)C(=O)O (stereo not drawn) | > 100 µM (inactive) | > 100 µM (inactive) | > 100 µM (inactive) | > 100 µM (inactive) | > 100 µM (inactive) | > 100 µM (inactive) | > 100 µM (inactive) | > 100 µM (inactive) |  |  | > 100 µM (inactive) | > 100 µM (inactive) | > 100 µM (inactive) |  | > 100 µM (inactive) | > 100 µM (inactive) | > 100 µM (inactive) | > 100 µM (inactive) | > 100 µM (inactive) | > 100 µM (inactive)
COc1cc(O)c(C(C)=O)c(O)c1 |  | 76.2 µM (inactive) | > 100 µM (inactive) | 92.5 µM (inactive) | > 100 µM (inactive) | 64.9 µM (inactive) | 55.2 µM (inactive) | 37.4 µM (inactive) | 37.5 µM (inactive) | > 100 µM (inactive) | 25.6 µM (inactive) | > 100 µM (inactive) | > 100 µM (inactive) | > 100 µM (inactive) | 30.8 µM (inactive) | 42.7 µM (inactive) | 59 µM (inactive) |  |  | 82.6 µM (inactive)

Reference: ChEMBL document CHEMBL1201862, “PubChem BioAssay data set” (2004)
